This note sets out measurements from PubChem BioAssay (NCI).

Several values for one entry are separate records, joined by “and”; a condition that tells them apart may be missing. Equal entries are not always repeated.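 Cells were grown in 96-well plates and exposed to each compound for 48 hours at five concentrations; endpoints were interpolated linearly between bracketing concentrations, or set to the highest concentration if not reached. The concentration for 50% growth inhibition is given as GI50. TGI is the concentration that stops growth completely.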 Where only a bound is given, the exact number is not on record here.

Some test systems named below: A549 NSCLC; HCT-15 colon; K-562 leukemia; MOLT-4 leukemia; NCI-H226 lung; RPMI-8226 leukemia; SK-MEL-2 melanoma; SK-MEL-28 melanoma; SN12C renal; TK-10 renal; T-47D breast.
What all share (experiment): NCI tumour cell line growth inhibition, 48 h

Turning to `CC(C)=CC1C(C(=O)O)C1(C)C` (configuration not stated), the TGI in the assay on A549 NSCLC, in the assay with HCT-15 colon, in the assay on K-562 leukemia, in the assay with MOLT-4 leukemia, with NCI-H226 lung and in the assay on RPMI-8226 leukemia was above 750 µM throughout. For the same compound, the TGI in the assay on SK-MEL-2 melanoma, with SK-MEL-28 melanoma and in the assay on SN12C renal was above 750 µM each time.
Take `CC(=O)Nc1ccc(Cl)c(Cl)c1`: the TGI with A549 NSCLC, in the assay with HCT-15 colon, with K-562 leukemia, in the assay with MOLT-4 leukemia, with NCI-H226 lung and with RPMI-8226 leukemia was above 100 µM in each case. For the same compound, the TGI in the assay on SK-MEL-28 melanoma, in the assay on SN12C renal and in the assay with TK-10 renal was above 100 µM throughout.
Turning to `N#CSCc1cccc(Nc2cc(=O)[nH]c(=O)[nH]2)c1`, the TGI in the assay with A549 NSCLC, with HCT-15 colon, in the assay with K-562 leukemia, in the assay with NCI-H226 lung, in the assay on RPMI-8226 leukemia and with SK-MEL-2 melanoma was above 100 µM throughout. Moreover, the TGI with SK-MEL-28 melanoma, with SN12C renal, in the assay with T-47D breast and in the assay on TK-10 renal was above 100 µM in each case.
In the case of `COC(=O)C1CC(C=[N+](C)C)=C(SC)N1` (configuration not stated), the TGI with HCT-15 colon, with K-562 leukemia, in the assay on MOLT-4 leukemia, in the assay on RPMI-8226 leukemia, in the assay on SK-MEL-2 melanoma and with SK-MEL-28 melanoma was above 100 µM in each case. Also, the TGI in the assay on T-47D breast and in the assay on TK-10 renal was above 100 µM throughout.
Consider `O=C1C(Cl)N(c2ccccc2)C1c1c[nH]c2ccccc12` (configuration not stated), for which the TGI in the assay with A549 NSCLC, in the assay on K-562 leukemia, with MOLT-4 leukemia, with RPMI-8226 leukemia, with SK-MEL-2 melanoma and with SK-MEL-28 melanoma was above 100 µM each time. Moreover, the TGI with SN12C renal and with TK-10 renal was above 100 µM throughout.
Regarding `CO/N=C1/c2sccc2[C@H](NC(=O)CNC(=O)OC(C)(C)C)[C@@H]1O`, the TGI with A549 NSCLC, in the assay on HCT-15 colon, with K-562 leukemia, with MOLT-4 leukemia, with NCI-H226 lung and in the assay on SK-MEL-2 melanoma was above 100 µM each time. Besides, the TGI with SK-MEL-28 melanoma, with SN12C renal, in the assay on T-47D breast and in the assay on TK-10 renal was above 100 µM throughout.
Regarding `COc1cc2c(cc1OC)C(=O)/C(=C/c1cc(C)c(O)c(C)c1)C2`, the TGI with A549 NSCLC was above 100 µM; in the assay with HCT-15 colon, above 100 µM; in the assay on K-562 leukemia, above 100 µM; in the assay with MOLT-4 leukemia, above 100 µM; in the assay on NCI-H226 lung, above 59.7 µM; in the assay on RPMI-8226 leukemia, above 100 µM. Further, the TGI in the assay on SK-MEL-28 melanoma, with SN12C renal, in the assay with T-47D breast and with TK-10 renal was above 100 µM in each case.
In the case of `O=C(OCc1ccccc1)OOC(=O)OCc1ccccc1`, the TGI with A549 NSCLC, in the assay on HCT-15 colon, with K-562 leukemia, in the assay with MOLT-4 leukemia, in the assay on RPMI-8226 leukemia and in the assay with SK-MEL-2 melanoma was above 100 µM in each case. For the same compound, the TGI in the assay on SK-MEL-28 melanoma and with SN12C renal was above 100 µM each time.
`COc1ccc(CNc2nc3ccc(C(F)(F)F)cc3nc2-c2ccccc2)cc1OC`: the TGI with A549 NSCLC, with HCT-15 colon, in the assay with MOLT-4 leukemia, with NCI-H226 lung, in the assay on RPMI-8226 leukemia and in the assay on SK-MEL-2 melanoma was above 100 µM each time. Further, the TGI in the assay on SK-MEL-28 melanoma, with SN12C renal and in the assay with TK-10 renal was above 100 µM in each case.
Regarding `c1ccc(N=c2snc(-c3ccccc3)s2)cc1`, the TGI with A549 NSCLC, in the assay with HCT-15 colon, in the assay with K-562 leukemia, with MOLT-4 leukemia, in the assay with NCI-H226 lung and with RPMI-8226 leukemia was above 100 µM in each case. The TGI in the assay on SK-MEL-2 melanoma, in the assay with SK-MEL-28 melanoma, in the assay with SN12C renal and with TK-10 renal was above 100 µM each time.
Regarding `CC(C)CCNC(=O)c1ccc(CNC(=O)/C=C/c2ccc(OCc3ccccc3)cc2)cc1`, the TGI with A549 NSCLC, in the assay with HCT-15 colon, in the assay on K-562 leukemia, with MOLT-4 leukemia, with NCI-H226 lung and in the assay with RPMI-8226 leukemia was above 100 µM in each case. Further, the TGI in the assay with SK-MEL-2 melanoma, in the assay with SK-MEL-28 melanoma, in the assay with SN12C renal and in the assay on T-47D breast was above 100 µM throughout.
For the compound `O=C1/C(=C/c2ccc(F)cc2)CNC/C1=C\c1ccc(F)cc1`, the TGI with A549 NSCLC was 18.1 µM; in the assay with HCT-15 colon, 1.97 µM; in the assay with MOLT-4 leukemia, above 40.5 µM; in the assay on NCI-H226 lung it was 15.3 µM; in the assay on SK-MEL-2 melanoma it was 29 µM; in the assay with SK-MEL-28 melanoma it was 2.68 µM. The TGI with SN12C renal was 6.71 µM; with T-47D breast it was 20.3 µM; in the assay on TK-10 renal it was 6.71 µM.
As to `COc1cc([C@@H]2c3cc4c(cc3C[C@H]3COC(=O)[C@@H]32)OCO4)cc(OC)c1OC`, the GI50 was 0.00375 µM in the assay on A549 NSCLC; 0.00318 µM and 0.0109 µM in the assay on HCT-15 colon; 0.00404 µM in the assay with K-562 leukemia; 0.00428 µM in the assay with MOLT-4 leukemia; 0.00524 µM in the assay with NCI-H226 lung; 0.00382 µM and 0.01 µM in the assay with RPMI-8226 leukemia. The GI50 in the assay on SK-MEL-28 melanoma was 0.00645 µM; in the assay with SN12C renal it was 0.0067 µM. Besides, the TGI is above 50 µM in the assay on A549 NSCLC; above 2.32 µM in the assay with HCT-15 colon; 21.9 µM in the assay on K-562 leukemia; 0.12 µM in the assay with MOLT-4 leukemia; 0.891 µM in the assay with NCI-H226 lung; 6.57 µM with RPMI-8226 leukemia. For the same compound, the TGI in the assay on SK-MEL-2 melanoma is above 2.32 µM; in the assay with SK-MEL-28 melanoma, above 50 µM; with SN12C renal, above 10.8 µM.
